The source of these data is patent publication US20130109718A1, “1-CYCLOALKYL- OR 1-HETEROCYCLYL-HYDROXYIMINO-3-PHENYL-PROPANES” (Hoffmann-La Roche Inc., priority 2011, published 2013).

By pEC50 is commonly meant the negative decadic logarithm of the EC50, by convention in mol/L. Low readings indicate a high EC50, high ones a low EC50.

The test deals with T1, human GPBAR1 receptor (Homo sapiens, UniProt Q8TDU6).
T1 construct: expressed in transfected cells
T1 sequence (Q8TDU6 1-330): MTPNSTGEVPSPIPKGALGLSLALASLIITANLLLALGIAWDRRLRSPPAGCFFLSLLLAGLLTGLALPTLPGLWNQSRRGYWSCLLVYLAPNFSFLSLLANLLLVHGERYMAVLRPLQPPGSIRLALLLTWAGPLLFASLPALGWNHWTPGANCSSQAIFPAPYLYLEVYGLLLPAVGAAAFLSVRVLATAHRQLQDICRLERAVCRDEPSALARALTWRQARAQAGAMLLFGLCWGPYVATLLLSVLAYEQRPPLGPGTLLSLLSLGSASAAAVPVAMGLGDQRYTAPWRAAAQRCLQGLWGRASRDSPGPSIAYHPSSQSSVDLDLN
As to the kind of experiment: functional cAMP assay in CHO-dhfr(minus) cells expressing human GPBAR1 receptors. To be noted: CHO-dhfr(minus) cells expressing human GPBAR1, 30 min at 30° C. It counts as cell-based. The text has this:
The cDNA of the human GPBAR1 receptor (Genbank: NM_170699 with the exception of a silent C:G mutation at position 339 from the start codon) was amplified by polymerase chain reaction (PCR) from human cDNA and inserted into pCineo (Promega) by standard methods (Current Protocols in Molecular Biology, Wiley Press, ed. Ausubel et al.). The final clone was verified by DNA sequence analysis. The plasmid was transfected into CHO cells deficient in dihydrofolate reductase activity (CHO-dhfr-) using Lipofectamine plus (Invitrogen). Clones were isolated in limited dilution conditions and identified by activities in the cAMP assay using lithocholic acid as agonist. A clonal cell line displaying the greatest activity in cAMP increases was selected and identified as giving consistently good responses for up to at least 20 passages.
CHO-dhfr(minus) cells expressing human GPBAR1 receptors are seeded 17-24 hours prior to the experiment 50.000 cells per well in a black 96 well plate with flat clear bottom (Corning Costar #3904) in DMEM (Invitrogen No. 31331), 1×HT supplement, with 10% fetal calf serum and incubated at 5% CO2 and 37° C. in a humidified incubator. The growth medium was exchanged with Krebs Ringer Bicarbonate buffer with 1 mM IBMX and incubated at 30° C. for 30 min. Compounds were added to a final assay volume of 100 μl and incubated for 30 min at 30° C. The assay was stopped by the addition of 50 μl lysis reagent (Tris, NaCl, 1.5% Triton X100, 2.5% NP40, 10% NaN3) and 50 μl detection solutions (20 μM mAb Alexa700-cAMP 1:1, and 48 μM Ruthenium-2-AHA-cAMP) and shaken for 2 h at room temperature. The time-resolved energy transfer is measured by a TRF reader (Evotec Technologies GmbH, Hamburg Germany), equipped with a ND:YAG laser as excitation source. The plate is measured twice with the excitation at 355 nm and at the emission with a delay of 100 ns and a gate of 100 ns, total exposure time 10 s at 730 (bandwidth 30 nm) or 645 nm (bandwidth 75 nm), respectively. The measured signal at 730 nm has to be corrected for the ruthenium background, the direct excitation of Alexa and the buffer control. The FRET signal is calculated as follows: FRET=T730-Alexa730-P(T645-B645) with P=Ru730-B730/Ru645-B645, where T730 is the test well measured at 730 nM, T645 is the test well measured at 645 nm, B730 and B645 are the buffer controls at 730 nm and 645 nm, respectively. cAMP content is determined from the function of a standard curve spanning from 10 μM to 0.13 nM cAMP.
EC50 values were determined using Activity Base analysis (ID Business Solution, Limited). The EC50 values for a wide range of bile acids generated from this assay were in agreement with the values published in the scientific literature. Specificity for GPBAR1 was tested in non-transfected CHO cells in the same assay as above.
For orientation: Changes in cAMP serve as a functional read-out for many G protein-coupled receptors.

Structures are written as SMILES. pEC50: −log10 of the molar value.

In turn, `Cc1ccccc1[C@H](C/C(=N\O)C1CCC(=O)N(C)C1)c1ccc(S(C)(=O)=O)cc1` (mixture of isomers) [Example 1, 5-((R,E)-1-(Hydroxyimino)-3-(4-(methylsulfonyl)phenyl)-3-o-tolylpropyl)-1-methylpiperidin-2-one] had a pEC50 of 6.93.

Compound `Cc1ccccc1[C@H](C/C(=N\O)C1CCC(=O)N(C)C1)c1ccc(S(C)(=O)=O)cc1` (single isomer, unassigned) [Example 3] showed a pEC50 of 6.84. With `Cc1ccccc1[C@H](C/C(=N\O)C1CCC(=O)N(C)C1)c1ccc(S(C)(=O)=O)cc1` (single isomer, unassigned) [Example 4] the figure was 7.54; with `Cc1ccccc1[C@H](C/C(=N/O)C1CCC(=O)N(C)C1)c1ccc(S(C)(=O)=O)cc1` (stereo partly drawn) [Example 2, 5-((R,Z)-1-(hydroxyimino)-3-(4-(methylsulfonyl)phenyl)-3-o-tolylpropyl)-1-methylpiperidin-2-one], 5.06; with `Cc1ccccc1[C@H](C/C(=N\O)C1CCC(=O)N(C)C1)c1ccc(N2CCC(C(=O)O)CC2)cc1` (stereo partly drawn) [Example 5, Sodium 1-(4-((1R,E)-3-(hydroxyimino)-3-(1-methyl-6-oxopiperidin-3-yl)-1-o-tolylpropyl)phenyl)piperidine-4-carboxylate], 7.38. To `Cc1ccccc1[C@H](C/C(=N\O)C1CCC(=O)N(C)C1)c1ccccc1` (stereo partly drawn) [Example 6, 5-((R,E)-1-(Hydroxyimino)-3-phenyl-3-o-tolylpropyl)-1-methylpiperidin-2-one] belongs 7.29; to `Cc1ccccc1[C@H](C/C(=N\O)C1CCC(=O)N(C)C1)c1ccc(-c2ccc(C(=O)O)cc2)cc1` (stereo partly drawn) [Example 7, 4′-((1R,E)-3-(Hydroxyimino)-3-(1-methyl-6-oxopiperidin-3-yl)-1-o-tolylpropyl)biphenyl-4-carboxylic acid], 6.25. In turn, `CC(=O)N1CCC(/C(CC(c2ccc(Br)cc2)c2ccccc2C)=N/O)CC1` (stereo not drawn) [Example 8, (E)-1-(4-(3-(4-Bromophenyl)-1-(hydroxyimino)-3-o-tolylpropyl)piperidin-1-yl)ethanone] showed a pEC50 of 5.08. For the compound `Cc1ccccc1C(C/C(=N\O)C1CCOCC1)c1ccc(Br)cc1` (stereo not drawn) [Example 9, (E)-3-(4-Bromophenyl)-1-(tetrahydro-2H-pyran-4-yl)-3-o-tolylpropan-1-one oxime], the pEC50 was 6.93.

Take `CS(=O)(=O)c1ccc(C(C/C(=N\O)C2CCOCC2)c2ccccc2)cc1` (stereo not drawn) [Example 10, (E)-3-(4-(Methylsulfonyl)phenyl)-3-phenyl-1-(tetrahydro-2H-pyran-4-yl)propan-1-one oxime]: the negative-log EC50 (pEC50) was 6.10. With `Cc1ccccc1C(C/C(=N\O)C1CCSCC1)c1ccc(Br)cc1` (stereo not drawn) [Example 11, (E)-3-(4-Bromophenyl)-1-(tetrahydro-2H-thiopyran-4-yl)-3-o-tolylpropan-1-one oxime] the figure was 5.00. As for `Cc1ccccc1C(C/C(=N\O)C1CCS(=O)(=O)CC1)c1ccc(Br)cc1` (stereo not drawn) [Example 12, 3-(4-Bromo-phenyl)-1-(1,1-dioxo-hexahydro-thiopyran-4-yl)-3-o-tolyl-propan-1-one oxime], the pEC50 is 5.01. Consider `Cc1ccccc1C(C/C(=N\O)[C@H]1CC[C@H](O)CC1)c1ccc(Br)cc1` (stereo partly drawn) [Example 13, (E)-3-(4-Bromophenyl)-1-(trans-4-hydroxycyclohexyl)-3-o-tolylpropan-1-one oxime], for which the pEC50 was 5.70.

In the case of `Cc1ccccc1C(C/C(=N\O)C1CCC(=O)CC1)c1ccc(Br)cc1` (stereo not drawn) [Example 14, (E)-4-(3-(4-bromophenyl)-1-(hydroxyimino)-3-o-tolylpropyl)cyclohexanone], the pEC50 is 6.22.

Take `Cc1ccccc1C(C/C(=N\O)C1CCC(O)CC1)c1ccc(S(C)(=O)=O)cc1` (stereo not drawn) [Example 15, (E)-1-(4-Hydroxycyclohexyl)-3-(4-(methylsulfonyl)phenyl)-3-o-tolylpropan-1-one oxime]: the pEC50 was 6.17. Compound `Cc1ccccc1C(C/C(=N/O)C1CCC(O)CC1)c1ccc(S(C)(=O)=O)cc1` (stereo not drawn) [Example 16, (Z)-1-(4-hydroxycyclohexyl)-3-(4-(methylsulfonyl)phenyl)-3-o-tolylpropan-1-one oxime] gave a pEC50 of 5.11.

As for `Cc1ccccc1C(C/C(=N\O)[C@H]1CC[C@](C)(O)CC1)c1ccc(S(C)(=O)=O)cc1` (stereo partly drawn) [Example 17, (E)-1-((1r,4r)-4-Hydroxy-4-methylcyclohexyl)-3-(4-(methylsulfonyl)phenyl)-3-o-tolylpropan-1-one oxime], the pEC50 was 5.01. For the compound `Cc1ccccc1C(C/C(=N\O)C1CC(O)C1)c1ccc(Br)cc1` (stereo not drawn) [Example 18, (E)-3-(4-Bromophenyl)-1-(3-hydroxycyclobutyl)-3-o-tolylpropan-1-one oxime], the pEC50 is 5.41.
